pIC50: −log10 of the molar value.
target: T1, HCV polymerase (Hepatitis C virus genotype 1b, UniProt Q9WMX2); assay: biochemical; conditions: NS5B polymerase IC50 μM, polymerase assay of Biological Example 1
T1 construct: (His)6 (C)
From the text: A number of assays have been published to assess these activities. A general method that assesses the gross increase of HCV virus in culture was disclosed in U.S. Pat. No. 5,738,985 to Miles et al. In vitro assays have been reported in Ferrari et al. Jnl. of Vir., 73:1649-1654, 1999; Ishii et al., Hepatology, 29:1227-1235, 1999; Lohmann et al., Jnl of Bio. Chem., 274:10807-10815, 1999; and Yamashita et al., Jnl. of Bio. Chem., 273:15479-15486, 1998.
WO 97/12033, filed on Sep. 27, 1996, by Emory University, listing C. Hagedorn and A. Reinoldus as inventors, which claims priority to U.S. Provisional Patent Application Ser. No. 60/004,383, filed on September 1995, described an HCV polymerase assay that can be used to evaluate the activity of the of the compounds described herein. Another HCV polymerase assay has been reported by Bartholomeusz, et al., Hepatitis C Virus (HCV) RNA polymerase assay using cloned HCV non-structural proteins; Antiviral Therapy 1996:1(Supp 4) 18-24.

Compound CNC(=O)c1c(-c2ccc(C)cc2)oc2nc(N(CCCCCP(C)(=O)O)S(C)(=O)=O)c(C3CC3)cc12 [Example 23.999991, 5-(N-(5-cyclopropyl-3-(methylcarbamoyl)-2-p-tolylfuro[2,3-b]pyridin-6-yl)methylsulfonamido)pentyl (methyl)phosphinic acid] has an IC50 of 0.004 µM.

same assay, conditions: polymerase assay of Biological Example 1; read-out: NS5B polymerase IC50

Point of comparison: CCc1cc2c(C(=O)NC)c(-c3ccc(F)cc3)oc2nc1N(CCCN1CCN(C)C1=O)S(C)(=O)=O [Example 21.94, 5-ethyl-2-(4-fluorophenyl)-N-methyl-6-(N-(3-(3-methyl-2-oxoimidazolidin-1-yl)propyl)methylsulfonamido)furo[2,3-b]pyridine-3-carboxamide], pIC50 7.11. Against it:
- CNC(=O)c1c(-c2ccc(C)cc2)oc2nc(N(CCCCC(=O)NCCCC(=O)O)S(C)(=O)=O)c(C3CC3)cc12 [Example 29.99999, 4-(5-(N-(5-cyclopropyl-3-(methylcarbamoyl)-2-p-tolylfuro[2,3-b]pyridin-6-yl)methylsulfonamido)pentanamido)butanoic acid] — 0.57 log units higher, 7.68
- CNC(=O)c1c(-c2ccc(C)cc2)oc2nc(N(CCC[C@H](C)C(=O)O)S(C)(=O)=O)c(C3CC3)cc12 [Example 47, (S)-5-(N-(5-cyclopropyl-3-(methylcarbamoyl)-2-p-tolylfuro[2,3-b]pyridin-6-yl)methylsulfonamido)-2-methylpentanoic acid] — 1.59 log units higher, 8.70
- CNC(=O)c1c(-c2ccc(C)cc2)oc2nc(N(CCC[C@H](COC)C(=O)O)S(C)(=O)=O)c(C3CC3)cc12 [Example 47.7, (R)-5-(N-(5-Cyclopropyl-3-(methylcarbamoyl)-2-p-tolylfuro[2,3-b]pyridin-6-yl)methylsulfonamido)-2-(methoxymethyl)pentanoic acid] — 1.59 log units higher, 8.70
- CNC(=O)c1c(-c2ccc(F)cc2)oc2nc(N(C)S(C)(=O)=O)c(CCCC(=O)N3CCC[C@H]3C(N)=O)cc12 [Example 4.4, (S)-5-(4-(2-carbamoylpyrrolidin-1-yl)-4-oxobutyl)-2-(4-fluorophenyl)-N-methyl-6-(N-methylmethylsulfonamido)furo[2,3-b]pyridine-3-carboxamide] — 0.41 log units lower, 6.70
- C#Cc1cc2c(C(=O)NC)c(-c3ccc(F)cc3)oc2nc1N(C)S(C)(=O)=O [Example 7, 5-ethynyl-2-(4-fluorophenyl)-N-methyl-6-(N-methylmethylsulfonamido)furo[2,3-b]pyridine-3-carboxamide] — within 0.2 log units, 7.22
- CNC(=O)c1c(-c2ccc(F)cc2)oc2nc(N(C)S(C)(=O)=O)c(CCCCC(N)=O)cc12 [Example 4.95, 5-(5-amino-5-oxopentyl)-2-(4-fluorophenyl)-N-methyl-6-(N-methylmethylsulfonamido)furo[2,3-b]pyridine-3-carboxamide] — 0.69 log units higher, 7.80
- CCc1ccc(-c2oc3nc(N(CCCCCO)S(C)(=O)=O)c(I)cc3c2C(=O)NC)cc1 [Example 23.9993, 2-(4-ethylphenyl)-6-(N-(5-hydroxypentyl)methylsulfonamido)-5-iodo-N-methylfuro[2,3-b]pyridine-3-carboxamide] — 0.48 log units higher, 7.59
- CCc1cc2c(C(=O)NC)c(-c3ccc(F)cc3)oc2nc1N(CCC1CCN(C(=O)OC(C)(C)C)CC1)S(C)(=O)=O [Example 21.995, tert-butyl 4-(2-(N-(5-ethyl-2-(4-fluorophenyl)-3-(methylcarbamoyl)furo[2,3-b]pyridin-6-yl)methylsulfonamido)ethyl)piperidine-1-carboxylate] — 0.30 log units lower, 6.81
- CNC(=O)c1c(-c2ccc(C)cc2)oc2nc(N(CCOCC(C)(C)C(=O)O)S(C)(=O)=O)c(C3CC3)cc12 [Example 41, 3-(2-(N-(5-cyclopropyl-3-(methylcarbamoyl)-2-p-tolylfuro[2,3-b]pyridin-6-yl)methylsulfonamido)ethoxy)-2,2-dimethylpropanoic acid] — 1.41 log units higher, 8.52
- CNC(=O)c1c(-c2ccc(F)cc2)oc2nc(N(CCc3ccccc3OC)S(C)(=O)=O)c(I)cc12 [Example 18.6, 2-(4-fluorophenyl)-5-iodo-6-(N-(2-methoxyphenethyl)methylsulfonamido)-N-methylfuro[2,3-b]pyridine-3-carboxamide] — 0.87 log units lower, 6.24
- CNC(=O)c1c(-c2ccc(C)cc2)oc2nc(N(CCCCCN)S(C)(=O)=O)c(C3CC3)cc12 [Example 23.999994, 6-(N-(5-aminopentyl)methylsulfonamido)-5-cyclopropyl-N-methyl-2-p-tolylfuro[2,3-b]pyridine-3-carboxamide] — 0.74 log units higher, 7.85
- CCc1ccc(-c2oc3nc(N(CCCCCC(=O)O)S(C)(=O)=O)c(C4CC4)cc3c2C(=O)NC)cc1 [Example 29.9, 6-(N-(5-cyclopropyl-2-(4-ethylphenyl)-3-(methylcarbamoyl)furo[2,3-b]pyridin-6-yl)methylsulfonamido) hexanoic acid] — 1.59 log units higher, 8.70
- CCc1cc2c(C(=O)NC)c(-c3ccc(F)cc3)oc2nc1N(CCc1ccc(OC)cc1)S(C)(=O)=O [Example 21.993, 5-ethyl-2-(4-fluorophenyl)-6-(N-(4-methoxyphenethyl)methylsulfonamido)-N-methylfuro[2,3-b]pyridine-3-carboxamide] — 0.47 log units lower, 6.64
- CNC(=O)c1c(-c2ccc(C)cc2)oc2nc(N(CCC[C@H](C)C(=O)N[C@@H](CO)Cc3ccccc3)S(C)(=O)=O)c(C3CC3)cc12 [Example 47.2] — within 0.2 log units, 7.24
- CNC(=O)c1c(-c2ccc(F)cc2)oc2nc3c(cc12)C(C)CCN3S(C)(=O)=O (stereo not shown) [Example 36.6, 2-(4-fluorophenyl)-N,5-dimethyl-8-(methylsulfonyl)-5,6,7,8-tetrahydrofuro[2,3-b][1,8]naphthyridine-3-carboxamide] — 0.47 log units lower, 6.64
- CCc1ccc(-c2oc3nc(N(CCCC4(C(=O)O)CC4)S(C)(=O)=O)c(C4CC4)cc3c2C(=O)NC)cc1 [Example 29.9993, 1-(3-(N-(5-cyclopropyl-2-(4-ethylphenyl)-3-(methylcarbamoyl)furo[2,3-b]pyridin-6-yl)methylsulfonamido)propyl) cyclopropanecarboxylic acid] — 1.59 log units higher, 8.70
- CNC(=O)c1c(-c2ccc(F)cc2)oc2nc(N(CCC(O)CO)S(C)(=O)=O)c(I)cc12 (stereo not shown) [Example 18.94, 6-(N-(3,4-dihyroxybutyl)methylsulfonamido)-2-(4-fluorophenyl)-5-iodo-N-methylfuro[2,3-b]pyridine-3-carboxamide] — 0.50 log units lower, 6.61
- CNC(=O)c1c(-c2ccccn2)oc2nc(N(C)S(C)(=O)=O)c(I)cc12 [Example 2.3, 5-iodo-N-methyl-6-(N-methylmethylsulfonamido)-2-(pyridin-2-yl)furo[2,3-b]pyridine-3-carboxamide] — 0.72 log units lower, 6.39
- CNC(=O)c1c(-c2ccc(F)cc2)oc2nc(N(C)S(C)(=O)=O)c(I)cc12 [Example 2, 2-(4-Fluoro-phenyl)-5-iodo-6-(methanesulfonyl-methyl-amino)-furo[2,3-b]pyridine-3-carboxylic acid methylamide] — 0.32 log units lower, 6.79
- CNC(=O)c1c(-c2ccc(F)cc2)oc2nc3c(cc12)C(C)(O)CCCN3S(C)(=O)=O (stereo not shown) [Example 32, 2-(4-Fluoro-phenyl)-5-hydroxy-9-methanesulfonyl-5-methyl-6,7,8,9-tetrahydro-5H-1-oxa-9,10-diaza-cyclohepta[f]indene-3-carboxylic acid methylamide] — 0.92 log units lower, 6.19
- CNC(=O)c1c(-c2ccc(C)cc2)oc2nc(N(CCC[C@@H](C)C(=O)N[C@@H](C(=O)OC)c3ccccc3)S(C)(=O)=O)c(C3CC3)cc12 [Example 29.99998, (R)-methyl 2-((R)-5-(N-(5-cyclopropyl-3-(methylcarbamoyl)-2-p-tolylfuro[2,3-b]pyridin-6-yl)methylsulfonamido)-2-methylpentanamido)-2-phenylacetate] — 1.59 log units higher, 8.70
- CCc1cc2c(C(=O)NC)c(-c3ccc(F)cc3)oc2nc1N(CCCN(C)S(=O)(=O)c1ccccc1)S(C)(=O)=O [Example 23.9, 5-ethyl-2-(4-fluorophenyl)-N-methyl-6-(N-(3-(N-methylphenylsulfonamido)propyl)methylsulfonamido) furo[2,3-b]pyridine-3-carboxamide] — within 0.2 log units, 7.13
- CNC(=O)c1c(-c2ccc(F)cc2)oc2nc(N(CCCCC(=O)OC)S(C)(=O)=O)c(I)cc12 [Example 18, 5-{[2-(4-Fluoro-phenyl)-5-iodo-3-methylcarbamoyl-furo[2,3-b]pyridin-6-yl]-methanesulfonyl-amino}-pentanoic acid methyl ester] — within 0.2 log units, 6.94
- CNC(=O)c1c(-c2ccc(C)cc2)oc2nc(N(CCCCCO)S(C)(=O)=O)c(C3CC3)cc12 [Example 23.99996, 5-cyclopropyl-6-(N-(5-hydroxypentyl)methylsulfon amido)-N-methyl-2-p-tolylfuro[2,3-b]pyridine-3-carboxamide] — 1.59 log units higher, 8.70
- CNC(=O)c1c(-c2ccc(C)cc2)oc2nc(N(CCC3CCCC3C(=O)O)S(C)(=O)=O)c(I)cc12 (stereo not shown) [Example 18.999, 2-(2-(N-(5-iodo-3-(methylcarbamoyl)-2-p-tolylfuro[2,3-b]pyridin-6-yl)methylsulfonamido)ethyl)cyclopentanecarboxylic acid] — 1.29 log units higher, 8.40
- CCc1cc2c(C(=O)NC)c(-c3ccc(F)cc3)oc2nc1N(CCCO)S(C)(=O)=O [Example 23.2, 5-ethyl-2-(4-fluorophenyl)-6-(N-(3-hydroxypropyl)methylsulfonamido)-N-methylfuro[2,3-b]pyridine-3-carboxamide] — 0.27 log units lower, 6.84

Source: patent publication US20120015907A1, “Furopyridine compounds and uses thereof” (NOVARTIS AG, priority 2010, published 2012)
